Experimental findings from publication PMC5762315, “Inhibition of polo-like kinase 4 (PLK4): a new therapeutic option for rhabdoid tumors and pediatric medulloblastoma” (Oncotarget, 2017) are described below.

Several values for one entry are separate records, joined by “and”; a condition that tells them apart may be missing. Equal entries are not always repeated.

Common to all, as to test: biochemical
Common to all, as to assay type: biochemical

The target of experiment [1] is various kinases (Homo sapiens, UniProt P23443). As to conditions: kinase RPS6KB1 (p70S6K); ZLYTE.
Chain of various kinases (Homo sapiens, UniProt P23443) (P23443 whole entry): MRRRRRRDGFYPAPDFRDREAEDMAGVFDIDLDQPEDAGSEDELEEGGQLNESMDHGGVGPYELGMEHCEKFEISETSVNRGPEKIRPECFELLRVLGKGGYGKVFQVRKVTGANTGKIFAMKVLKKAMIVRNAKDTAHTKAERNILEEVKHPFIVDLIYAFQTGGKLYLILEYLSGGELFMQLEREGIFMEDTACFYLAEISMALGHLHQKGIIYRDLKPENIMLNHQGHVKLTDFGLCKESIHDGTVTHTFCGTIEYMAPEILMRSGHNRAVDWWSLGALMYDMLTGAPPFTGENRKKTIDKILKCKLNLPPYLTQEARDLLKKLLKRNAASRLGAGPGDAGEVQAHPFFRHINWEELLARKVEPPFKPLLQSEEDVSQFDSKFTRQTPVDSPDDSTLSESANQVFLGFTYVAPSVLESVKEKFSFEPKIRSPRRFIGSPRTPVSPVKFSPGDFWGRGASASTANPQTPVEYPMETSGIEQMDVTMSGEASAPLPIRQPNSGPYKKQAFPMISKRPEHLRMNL
Experiment [2] concerns the target T1, various kinases (Homo sapiens, UniProt Q15139).
T1 sequence (Q15139 1-912): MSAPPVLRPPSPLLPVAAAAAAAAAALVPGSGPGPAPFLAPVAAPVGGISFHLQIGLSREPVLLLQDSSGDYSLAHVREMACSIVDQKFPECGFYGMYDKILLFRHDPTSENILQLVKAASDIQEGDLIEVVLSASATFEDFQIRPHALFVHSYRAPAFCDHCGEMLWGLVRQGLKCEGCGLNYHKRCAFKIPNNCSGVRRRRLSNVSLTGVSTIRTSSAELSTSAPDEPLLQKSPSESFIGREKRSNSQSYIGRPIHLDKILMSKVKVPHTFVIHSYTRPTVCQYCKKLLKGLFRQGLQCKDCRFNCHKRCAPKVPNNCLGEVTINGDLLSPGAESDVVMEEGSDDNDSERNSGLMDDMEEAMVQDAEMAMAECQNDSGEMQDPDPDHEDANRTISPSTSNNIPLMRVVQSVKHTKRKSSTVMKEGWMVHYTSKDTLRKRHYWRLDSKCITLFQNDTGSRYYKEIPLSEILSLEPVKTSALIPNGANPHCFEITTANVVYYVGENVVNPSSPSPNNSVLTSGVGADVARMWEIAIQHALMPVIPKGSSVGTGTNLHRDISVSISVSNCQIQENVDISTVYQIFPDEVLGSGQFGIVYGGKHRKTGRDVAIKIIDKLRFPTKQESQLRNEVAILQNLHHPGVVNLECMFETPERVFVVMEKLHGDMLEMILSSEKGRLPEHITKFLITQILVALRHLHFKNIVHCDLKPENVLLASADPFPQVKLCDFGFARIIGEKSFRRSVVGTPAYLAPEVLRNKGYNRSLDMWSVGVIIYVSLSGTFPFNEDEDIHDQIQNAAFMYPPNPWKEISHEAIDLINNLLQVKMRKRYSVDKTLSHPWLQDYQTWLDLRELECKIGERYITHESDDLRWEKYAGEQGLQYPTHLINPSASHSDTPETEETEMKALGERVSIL
As to conditions: kinase PRKD1 (PKC mu); ZLYTE.

Experiment [3] addresses various kinases (Homo sapiens, UniProt P00519, E255K). As to conditions: ABL1 E255K.
For experiment [4], the target named is various kinases (Homo sapiens, UniProt P49674, R178C). As to conditions: CSNK1E (CK1 epsilon) R178C.
Chain of various kinases (Homo sapiens, UniProt P49674, R178C) (P49674 whole entry R178C): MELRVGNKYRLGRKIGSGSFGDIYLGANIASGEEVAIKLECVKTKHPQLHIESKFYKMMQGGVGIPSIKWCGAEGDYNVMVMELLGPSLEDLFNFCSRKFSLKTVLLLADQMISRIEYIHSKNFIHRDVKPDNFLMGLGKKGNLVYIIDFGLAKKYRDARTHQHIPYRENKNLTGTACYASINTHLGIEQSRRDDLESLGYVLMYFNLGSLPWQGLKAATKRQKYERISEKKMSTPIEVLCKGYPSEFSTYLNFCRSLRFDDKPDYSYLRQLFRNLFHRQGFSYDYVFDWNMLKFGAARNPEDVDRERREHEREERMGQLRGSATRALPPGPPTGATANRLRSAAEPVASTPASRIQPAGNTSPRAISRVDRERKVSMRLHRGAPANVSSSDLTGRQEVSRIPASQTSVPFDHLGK
The target of experiment [5] is T2, various kinases (Homo sapiens, UniProt Q9UHD2).
T2 sequence (Q9UHD2 1-729): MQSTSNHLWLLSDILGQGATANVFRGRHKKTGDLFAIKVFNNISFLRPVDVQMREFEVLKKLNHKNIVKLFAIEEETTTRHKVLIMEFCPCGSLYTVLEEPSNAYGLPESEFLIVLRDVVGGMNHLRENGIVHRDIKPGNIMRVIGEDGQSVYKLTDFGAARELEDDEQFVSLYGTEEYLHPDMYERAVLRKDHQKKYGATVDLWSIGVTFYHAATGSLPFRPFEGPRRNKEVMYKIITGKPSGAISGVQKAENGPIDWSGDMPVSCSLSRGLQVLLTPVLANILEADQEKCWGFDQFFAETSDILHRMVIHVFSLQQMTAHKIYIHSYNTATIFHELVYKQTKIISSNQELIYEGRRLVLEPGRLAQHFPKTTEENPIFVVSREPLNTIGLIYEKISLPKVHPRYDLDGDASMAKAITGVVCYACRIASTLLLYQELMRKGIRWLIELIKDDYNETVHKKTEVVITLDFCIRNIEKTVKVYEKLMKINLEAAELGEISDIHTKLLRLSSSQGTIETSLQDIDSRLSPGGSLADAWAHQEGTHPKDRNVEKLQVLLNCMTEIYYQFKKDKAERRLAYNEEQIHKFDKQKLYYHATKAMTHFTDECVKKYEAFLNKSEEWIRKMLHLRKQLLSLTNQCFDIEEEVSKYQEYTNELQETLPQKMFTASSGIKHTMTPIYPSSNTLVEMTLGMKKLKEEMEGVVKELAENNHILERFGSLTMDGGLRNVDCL
The following applies: kinase TBK1; ZLYTE.

The target in experiment [6] is various kinases (Homo sapiens, UniProt P21802, N549H). As to conditions: FGFR2 N549H.
Chain of various kinases (Homo sapiens, UniProt P21802, N549H) (P21802 22-821 N549H): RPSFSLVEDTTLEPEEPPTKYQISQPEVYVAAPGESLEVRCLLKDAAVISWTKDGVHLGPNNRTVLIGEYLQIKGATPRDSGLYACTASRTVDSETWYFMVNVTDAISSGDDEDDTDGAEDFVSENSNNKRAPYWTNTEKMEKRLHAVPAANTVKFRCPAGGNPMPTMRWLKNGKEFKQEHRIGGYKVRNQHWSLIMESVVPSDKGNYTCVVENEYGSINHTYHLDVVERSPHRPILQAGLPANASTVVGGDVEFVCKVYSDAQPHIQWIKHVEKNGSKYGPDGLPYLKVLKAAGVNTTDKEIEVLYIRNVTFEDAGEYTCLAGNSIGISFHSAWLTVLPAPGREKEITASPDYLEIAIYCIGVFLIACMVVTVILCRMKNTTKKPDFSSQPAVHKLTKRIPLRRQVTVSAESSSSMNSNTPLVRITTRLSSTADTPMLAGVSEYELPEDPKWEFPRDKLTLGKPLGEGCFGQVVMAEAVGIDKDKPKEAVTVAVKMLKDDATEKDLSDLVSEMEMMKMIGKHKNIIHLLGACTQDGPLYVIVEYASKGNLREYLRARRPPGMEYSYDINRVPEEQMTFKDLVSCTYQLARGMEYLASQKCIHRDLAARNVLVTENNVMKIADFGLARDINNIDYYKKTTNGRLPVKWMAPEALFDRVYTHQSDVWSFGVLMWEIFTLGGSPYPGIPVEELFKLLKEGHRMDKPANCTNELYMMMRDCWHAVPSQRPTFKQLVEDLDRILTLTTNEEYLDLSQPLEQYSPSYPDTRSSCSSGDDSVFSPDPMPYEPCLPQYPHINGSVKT
Experiment [7] addresses various kinases (Homo sapiens, UniProt P48730). As to conditions: CSNK1D (CK1 delta).
The target in experiment [8] is various kinases (Homo sapiens, UniProt Q6DT37). The following applies: CDC42 BPG (MRCKG).
Chain of various kinases (Homo sapiens, UniProt Q6DT37) (Q6DT37 whole entry): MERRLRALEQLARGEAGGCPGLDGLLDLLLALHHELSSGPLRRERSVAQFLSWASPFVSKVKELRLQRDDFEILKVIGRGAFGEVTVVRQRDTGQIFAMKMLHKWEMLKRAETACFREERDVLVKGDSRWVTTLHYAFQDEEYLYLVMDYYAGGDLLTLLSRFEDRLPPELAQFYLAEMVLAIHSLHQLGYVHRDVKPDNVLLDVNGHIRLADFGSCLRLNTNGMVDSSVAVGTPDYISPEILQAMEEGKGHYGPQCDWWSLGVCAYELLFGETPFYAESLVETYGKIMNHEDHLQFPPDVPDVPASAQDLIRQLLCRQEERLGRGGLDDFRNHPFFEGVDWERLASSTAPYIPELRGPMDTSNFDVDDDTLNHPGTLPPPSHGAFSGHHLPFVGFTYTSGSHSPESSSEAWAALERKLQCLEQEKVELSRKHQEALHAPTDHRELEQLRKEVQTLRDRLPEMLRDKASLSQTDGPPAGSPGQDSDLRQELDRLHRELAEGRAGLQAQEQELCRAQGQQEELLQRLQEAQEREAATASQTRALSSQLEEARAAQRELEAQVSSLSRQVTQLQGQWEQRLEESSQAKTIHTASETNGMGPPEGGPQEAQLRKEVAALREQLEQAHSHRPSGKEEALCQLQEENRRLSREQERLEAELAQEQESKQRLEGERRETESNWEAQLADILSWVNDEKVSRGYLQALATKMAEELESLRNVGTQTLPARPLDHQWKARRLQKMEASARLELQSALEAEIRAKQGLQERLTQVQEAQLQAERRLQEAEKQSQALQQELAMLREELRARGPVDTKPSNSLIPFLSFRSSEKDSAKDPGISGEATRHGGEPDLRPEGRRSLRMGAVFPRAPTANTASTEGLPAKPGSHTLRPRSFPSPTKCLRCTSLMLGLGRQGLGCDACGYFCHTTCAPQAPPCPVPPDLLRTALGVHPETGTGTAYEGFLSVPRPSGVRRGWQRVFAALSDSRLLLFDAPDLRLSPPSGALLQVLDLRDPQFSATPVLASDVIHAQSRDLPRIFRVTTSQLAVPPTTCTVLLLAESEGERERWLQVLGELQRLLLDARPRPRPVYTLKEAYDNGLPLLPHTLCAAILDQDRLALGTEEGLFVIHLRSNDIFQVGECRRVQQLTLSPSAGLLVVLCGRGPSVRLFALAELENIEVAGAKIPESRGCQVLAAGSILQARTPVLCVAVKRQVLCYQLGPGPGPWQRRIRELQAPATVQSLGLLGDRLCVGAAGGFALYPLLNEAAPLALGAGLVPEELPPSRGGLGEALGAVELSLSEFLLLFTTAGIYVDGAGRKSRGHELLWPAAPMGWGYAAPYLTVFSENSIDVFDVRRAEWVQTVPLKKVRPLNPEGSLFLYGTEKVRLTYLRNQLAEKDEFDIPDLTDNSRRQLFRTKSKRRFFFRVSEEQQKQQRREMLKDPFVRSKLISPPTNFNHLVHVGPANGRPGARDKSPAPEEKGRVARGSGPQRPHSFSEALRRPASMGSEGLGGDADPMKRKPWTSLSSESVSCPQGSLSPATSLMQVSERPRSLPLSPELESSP
The target in experiment [9] is various kinases (Homo sapiens, UniProt P00533, G719S). As to conditions: EGFR (ErbB1) G719S.
The target in experiment [10] is T3, various kinases (Homo sapiens, UniProt Q13188).
T3 sequence (Q13188 1-491): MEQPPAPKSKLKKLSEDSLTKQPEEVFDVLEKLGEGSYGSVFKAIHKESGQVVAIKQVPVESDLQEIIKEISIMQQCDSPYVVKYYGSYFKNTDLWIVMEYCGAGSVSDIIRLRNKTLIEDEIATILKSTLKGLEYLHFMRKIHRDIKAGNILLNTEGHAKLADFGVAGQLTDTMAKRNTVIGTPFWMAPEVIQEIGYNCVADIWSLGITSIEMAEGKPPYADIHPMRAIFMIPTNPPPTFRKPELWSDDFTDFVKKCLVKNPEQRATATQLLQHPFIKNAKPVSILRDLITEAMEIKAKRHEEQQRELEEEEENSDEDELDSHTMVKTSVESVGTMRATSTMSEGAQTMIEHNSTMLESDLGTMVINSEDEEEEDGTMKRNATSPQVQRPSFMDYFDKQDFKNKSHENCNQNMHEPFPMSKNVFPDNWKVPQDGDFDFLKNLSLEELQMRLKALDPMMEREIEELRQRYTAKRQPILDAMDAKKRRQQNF
The following applies: kinase STK3 (MST2); ZLYTE.

Experiment [11] has as its target various kinases (Homo sapiens, UniProt P17612). The following applies: kinase PRKACA (PKA); ZLYTE.

Chain of various kinases (Homo sapiens, UniProt P00519, E255K) (P00519 whole entry E255K): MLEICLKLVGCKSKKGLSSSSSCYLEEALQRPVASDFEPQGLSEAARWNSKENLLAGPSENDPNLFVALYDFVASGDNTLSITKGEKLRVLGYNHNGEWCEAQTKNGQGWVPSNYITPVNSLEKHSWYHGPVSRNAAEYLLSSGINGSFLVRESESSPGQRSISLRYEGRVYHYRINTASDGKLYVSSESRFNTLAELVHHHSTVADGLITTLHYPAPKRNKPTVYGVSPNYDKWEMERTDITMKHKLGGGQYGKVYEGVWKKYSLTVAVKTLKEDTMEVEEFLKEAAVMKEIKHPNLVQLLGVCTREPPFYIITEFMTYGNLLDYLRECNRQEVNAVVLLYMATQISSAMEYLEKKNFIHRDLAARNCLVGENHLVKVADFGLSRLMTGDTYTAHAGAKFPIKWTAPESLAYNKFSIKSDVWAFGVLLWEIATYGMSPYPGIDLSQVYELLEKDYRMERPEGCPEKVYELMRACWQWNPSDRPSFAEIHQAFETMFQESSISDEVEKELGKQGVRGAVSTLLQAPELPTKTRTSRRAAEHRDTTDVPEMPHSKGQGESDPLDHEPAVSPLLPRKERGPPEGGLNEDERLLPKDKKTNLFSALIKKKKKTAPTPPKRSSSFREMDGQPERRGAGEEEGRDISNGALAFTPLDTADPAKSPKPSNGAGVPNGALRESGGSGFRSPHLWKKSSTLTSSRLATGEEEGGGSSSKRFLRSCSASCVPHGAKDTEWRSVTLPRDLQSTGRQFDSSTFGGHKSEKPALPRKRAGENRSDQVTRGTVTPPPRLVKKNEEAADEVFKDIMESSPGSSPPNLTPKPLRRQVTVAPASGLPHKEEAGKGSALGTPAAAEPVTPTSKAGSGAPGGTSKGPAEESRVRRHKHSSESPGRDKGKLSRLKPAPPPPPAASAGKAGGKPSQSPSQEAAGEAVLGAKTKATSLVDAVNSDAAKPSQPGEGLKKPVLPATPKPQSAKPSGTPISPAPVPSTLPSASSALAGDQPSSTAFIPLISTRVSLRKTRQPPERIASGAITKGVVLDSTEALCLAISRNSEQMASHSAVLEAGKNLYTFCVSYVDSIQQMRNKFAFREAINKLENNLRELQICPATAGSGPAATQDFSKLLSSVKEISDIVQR
Chain of various kinases (Homo sapiens, UniProt P48730) (P48730 whole entry): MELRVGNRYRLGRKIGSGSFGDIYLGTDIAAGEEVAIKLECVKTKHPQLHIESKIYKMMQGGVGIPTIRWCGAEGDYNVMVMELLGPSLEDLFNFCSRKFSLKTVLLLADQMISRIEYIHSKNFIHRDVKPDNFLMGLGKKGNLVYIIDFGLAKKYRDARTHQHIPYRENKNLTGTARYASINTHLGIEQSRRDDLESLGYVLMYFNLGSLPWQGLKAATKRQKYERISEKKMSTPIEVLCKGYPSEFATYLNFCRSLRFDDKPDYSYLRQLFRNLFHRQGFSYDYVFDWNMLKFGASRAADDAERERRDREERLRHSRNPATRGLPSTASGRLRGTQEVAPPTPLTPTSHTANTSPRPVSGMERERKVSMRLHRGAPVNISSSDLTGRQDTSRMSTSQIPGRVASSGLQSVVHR

One may read the % Inhibition as the drop in the measured response relative to a control, in per cent. For the compound `COc1ccc2c(c1)[C@]1(C[C@H]1c1ccc3c(/C=C/c4ccc(CN5C[C@@H](C)O[C@@H](C)C5)cc4)n[nH]c3c1)C(=O)N2` [CFI-400945], the “% Inhibition Average” value at various kinases [1] was 7%; on various kinases [2] it was 0%; at various kinases [5], 4%; at various kinases [10] it was 13%; on various kinases [11], 3%. Further, the “% Inhibition Duplicate #1” value on various kinases [1] is 6%; at various kinases [2] it was -1%; at various kinases [5], 3%; at various kinases [10] it was 15%; on various kinases [11] it was 4%. The “% Inhibition Duplicate #2” value turned out to be 8% on various kinases [1]; 1% at various kinases [2]; 4% at various kinases [5]; 12% on various kinases [10]; 2% at various kinases [11]. In addition, the “% Inhibition” value on various kinases [3] is 39% and 36%; on various kinases [4], 1%; at various kinases [6], 12% and 18%; on various kinases [7], -2% and 3%; on various kinases [8] it was 0% and -1%; on various kinases [9] it was 5%.
